Results as given in patent US8785425B2, “11β-hydroxyandrosta-4-ene-3-ones” (Sun Pharma Advanced Research Company Ltd., priority 2006, dated 2014).
Marks after values point to notes of the source that are not given here.

Columns and labels:
glucocorticoid receptors = molecular target: T1, glucocorticoid receptors (Homo sapiens, UniProt P04150); assay: Glucocorticoid receptor binding assay ([3H]dexamethasone radioligand); conditions: HeLa cells transfected with glucocorticoid receptors; for inhibition at 0.1 µM: % inhibition at 100 nM
T1 construct: host or cells: Human HeLa cells
T1 sequence (P04150 1-777): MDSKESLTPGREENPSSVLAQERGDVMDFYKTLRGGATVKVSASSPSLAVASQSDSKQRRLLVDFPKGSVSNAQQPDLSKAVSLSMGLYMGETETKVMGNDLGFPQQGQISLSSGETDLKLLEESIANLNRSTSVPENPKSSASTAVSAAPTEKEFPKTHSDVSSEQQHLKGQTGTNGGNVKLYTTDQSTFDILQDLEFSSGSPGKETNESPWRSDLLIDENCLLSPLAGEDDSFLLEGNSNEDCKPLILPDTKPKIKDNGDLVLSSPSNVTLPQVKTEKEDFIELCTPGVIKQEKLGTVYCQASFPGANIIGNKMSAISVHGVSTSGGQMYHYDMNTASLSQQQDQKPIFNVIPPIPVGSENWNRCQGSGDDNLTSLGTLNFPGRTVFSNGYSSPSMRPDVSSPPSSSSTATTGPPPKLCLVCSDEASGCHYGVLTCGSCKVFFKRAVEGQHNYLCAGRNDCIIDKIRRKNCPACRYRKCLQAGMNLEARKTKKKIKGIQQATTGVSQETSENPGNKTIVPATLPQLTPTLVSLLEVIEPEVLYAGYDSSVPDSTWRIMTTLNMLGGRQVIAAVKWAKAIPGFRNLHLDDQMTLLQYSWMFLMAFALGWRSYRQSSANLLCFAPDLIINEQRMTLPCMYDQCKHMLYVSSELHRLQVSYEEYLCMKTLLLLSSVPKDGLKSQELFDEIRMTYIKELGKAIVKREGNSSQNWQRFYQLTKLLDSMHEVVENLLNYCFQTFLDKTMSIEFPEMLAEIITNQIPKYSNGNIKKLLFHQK
Procedure: The steroid receptor binding assay were performed by MDS Pharma Services at their Taipei (Taiwan) pharmacology laboratory.
The activity of test compounds on glucocorticoid receptor was assessed using radioligand binding assays. […] Free [^3H]dexamethasone was removed from the medium by centrifugation and concentration of receptor bound ligand was determined in the supernatant by liquid scintillation counting.
The % inhibition was evaluated using a single concentration of test compound and the corresponding radiolabeled ligand. Results are presented as the percent inhibition of specific binding. The values are average of duplicate determinations for each concentration.

[1] = test system: cotton pellet granuloma (blank cotton pellet); assay: Assessment of systemic activity by i.v. route (blank cotton pellet granuloma); assay type: in vivo; conditions: dose 1600 mcg (for 3 days), male SD rats
Procedure: For assessing systemic side effect on i.v. administration, cotton pellet granuloma assay (blank cotton pellet) in male SD rats was undertaken. Sterilized cotton pellets weighing 20 mg were surgically implanted into the scapular region on both sides. Starting from next day of implantation, compounds dissolved in Pharmasove (Pharmasolve 66.67% in saline) or vehicle were administered intravenously at 1.6 mg/kg dose for 3 successive days. On fifth day of implantation, pellets along with granuloma were taken out. The thymus gland was also separated from each animal and weighed. The pellets with granuloma were dried for 20 hrs at 60° C. and weighed. Mean weights of dry granuloma and thymus and body weight gain/100 g body weights were compared with vehicle control groups.

[2] = test system: croton oil induced ear edema; assay: Croton oil ear edema; assay type: in vivo, Mice (male, CD-1); conditions: inhibition at 1.6 μg, applied to ear, mice
Procedure: Mice (male, CD-1) were made into different groups. Test compounds were dissolved in pyridine-water-acetone (4:2:14) solution […] of compound or vehicle solution was applied to the left ear of the mice. The right ear of each mouse was applied simultaneously with 10 μl of pyridine:water:acetone (4:2:14) solution. After 2 hrs of compound or vehicle application, 10 μl of croton oil solution was applied to the left ear of all animals. After 6 hr of croton oil treatment the animals were sacrificed; ears were excised and weighed separately.

[3] = test system: cotton pellet induced granuloma; assay: Cotton pellet granuloma (compound impregnated in pellet); assay type: in vivo; conditions: dose 1000 mcg per pellet, SD rats
Procedure: SD rats were used for assessing anti-inflammatory activity of test compound using cotton pellet granuloma method. Sterilized cotton pellets weighing 20 mg were prepared. Test compounds were dissolved in acetone so as to get the required quantity for each cotton pellet in 500 μl. Different pellets were impregnated with 500 μl of acetone to contain required quantity of test compounds and allowed to dry. Vehicle control pellets were impregnated with 500 μl acetone. Rats were made into different groups. Two cotton pellets were surgically implanted into the scapular region of each rat. On sixth day of such implantation, pellets along with granuloma were taken out. Thymus gland was also separated from each animal and weighed. The pellets with granuloma were dried for 20 hrs at 60° C. and weighed. Mean weights of dry granuloma and thymus, body weight gain/100 g body weights were calculated.

[4] = test system: Sephadex induced lung edema; assay: in vivo
Procedure: (§1) Sephadex G-200 was prepared in sterile saline (10 mg/ml) and allowed to swell for at least 3 days at room temperature. Test compounds were prepared as suspensions by grinding and sonicating the solid in chilled saline. All the compounds were administered intratracheally at 24 hrs and 2 hrs prior to intratracheal administration of Sephadex (5 mg/kg) under light ether anesthesia. Vehicle control animals were administered vehicle instead of Sephadex. At 24 hr after Sephadex instillation, lung and thymus were excised from individual animals and weighed. Wet weight of lung and thymus was corrected for 100 g of initial body weight. The percentage increase in lung weight caused by Sephadex and its inhibitions by the compounds, were calculated. The percentage inhibitions of thymus compared to vehicle control group were also calculated.

[5] = test system: liver glycogen deposition; assay type: in vivo, Male Sprague Dawley rats; conditions: 3 mg/kg intratracheally, 2 doses 24 hrs apart, adrenalectomized rats
Procedure: Male Sprague Dawley rats, weighing 190-220 g were bilaterally adrenalectomized and maintained on 0.9% saline solution throughout the experiment. On day 5th and 6th of adrenalectomy, animals were made into different groups, test compounds prepared in cold saline (sonicated for 30 min) were instilled intratracheally 2 doses@3 mg/kg, 24 hrs apart. At 15 hrs after the last treatment, animals were sacrificed and livers were excised and weighed. The glycogen content of the livers was determined by anthrone method. Briefly, a weighed quantity of liver tissue was homogenized with 5% trichloroacetic acid, supernatant mixed with ethanol and kept overnight for precipitation. The glycogen thus extracted was estimated as glucose generated after acid hydrolysis by addition of anthrone reagent at 620 nm. Glycogen content was expressed as mg/100 g liver.

in vivo = conditions: SD, rat, thymus, other: intratracheal
Procedure: as §1

[6] = dose 3000 mcg/kg intratracheally, SD rat

SMILES	inhibition at 0.1 µM (glucocorticoid receptors)	Mean Inhibition of Granuloma (%) [1]	Mean % Inhibition (croton oil ear edema) [2]	Mean % Inhibition of Granuloma [3]	Thymus wt. (% Decrease) [3]	% Inhibition of thymus [5]	Glycogen content [5]	further results
C[C@@H]1CC2C3C[C@H](F)C4=CC(=O)C=C[C@]4(C)[C@@]3(F)[C@@H](O)C[C@]2(C)[C@@]1(OC(=O)c1ccco1)C(=O)SOCc1ccc(F)cc1 (stereo partly drawn) [IC.5, 6α,9α-Difluoro-17α-[(2-furanylcarbonyl)oxy]-11β-hydroxy-16α-methyl-3-oxoandrosta-1,4-diene-17β-carbonylsulfenic acid (4-fluorophenyl)methyl ester]	75%	−22.20%	–	–	–	–	–	–
C[C@@H]1C[C@H]2[C@@H]3CCC4=CC(=O)C=C[C@]4(C)[C@@]3(F)[C@@H](O)C[C@]2(C)[C@@]1(O)C(=O)CO [Dexamethasone, 16α-methyl-9α-fluoro-1,4-pregnadiene-11β,17α,21-triol-3,20-dione, reference compound]	–	–	50.05^a %	44.73%	68.66%	–	–	–
CCC(=O)O[C@]1(C(=O)SCF)[C@H](C)C[C@H]2[C@@H]3C[C@H](F)C4=CC(=O)C=C[C@]4(C)[C@@]3(F)[C@@H](O)C[C@@]21C [Fluticasone propionate, (S)-fluoromethyl 6α,9α-difluoro-11β-hydroxy-16α-methyl-17α-propionyloxy-3-oxoandrosta-1,4-diene-17β-carbothioate, reference compound]	–	55.62%	81.09^a %	75.03%	82.36%	70.17%	1514.65 mg/100 g liver	ED50 Lung edema ([4]; i.t., Sephadex lung edema model in SD rat): 0.086 mg/kg; ED50 Thymus ([4]; i.t., thymus involution, Sephadex lung edema model in SD rat): 0.36 mg/kg; Mean Thymus wt. Decrease (%) [1]: 75.71%
CCC(=O)O[C@]1(C(=O)SOCF)[C@H](C)CC2C3C[C@H](F)C4=CC(=O)C=C[C@]4(C)[C@@]3(F)[C@@H](O)C[C@@]21C (stereo partly drawn) [IC.3, 6α,9α-Difluoro-11β-hydroxy-16α-methyl-3-oxo-17α-propionyloxyandrosta-1,4-diene-17β-carbonylsulfenic acid fluoromethyl ester]	72%	12.09%	–	–	–	–	−11.34 mg/100 g liver	–
CCCC1O[C@@H]2C[C@H]3[C@@H]4CCC5=CC(=O)C=C[C@]5(C)[C@H]4[C@@H](O)C[C@]3(C)[C@]2(C(=O)CO)O1 (stereo partly drawn) [Budesonide, (11β,16α)-16,17-[Butylidenebis(oxy)]-11,21-dihydroxypregna-1,4-diene-3,20-dione]	–	–	–	–	–	65.02%	552.77 mg/100 g liver	inhibition at 0.01 µM (glucocorticoid receptors; % inhibition at 10 nM): 85%; ED50 at 24 h (in vivo): 0.68 mg/kg; ED50 ([4]; Rattus norvegicus, inhaled or nasal, read-out: ED50 Lung edema): 0.101 mg/kg; Mean % inhibition Lung edema [4, 6]: 119.38%; Mean % inhibition Thymus [4, 6]: 67.08%
